Entries after “also recorded” stand apart in the source; their conditions may differ.
Assays:
[1] = tested on: LPS-induced macrophage RAW264.7 cells; test: M1 macrophage cytokines (TNF-α, IL-1β, MCP-1) by ELISA; assay type: cell-based
Description: (§1) Macrophages were treated without or with (R)/(S)-salbutamol for 1 h prior to LPS stimulation and subsequently incubated for 12 h. […] The fluorescence of the oxidized product (2′,7′-dichlorofluorescein, DCF) was assessed using an LSM710 Laser Scanning Confocal Microscope (Carl Zeiss, Jena, Germany). The concentration of NO in the culture supernatant was measured by assaying the concentrations of nitrite (a stable NO breakdown product) using the Griess assay (Beyotime, Shanghai, China), according to the manufacturer's instructions. The intracellular NO level was detected using the NO-sensitive fluorescence probe DAF-FM DA (Sigma, St. Louis, Mo., USA) (24). Cells were labeled with DAF-FM DA (10 μM) at 37° C. for 30 min and were gently washed three times with PBS. Fluorescence was detected using a LSM710 Laser Scanning Confocal Microscope (Scale bars, 100 μm) (Carl Zeiss, Jena, Germany).
To confirm that M1 polarization was predominant over M2 polarization after stimulation with LPS, the levels of typical M1 macrophage cytokines (i.e., TNF-α, IL-1β and MCP-1) were quantified using ELISA; these cytokines are mainly synthesized by macrophages and play an important role in inflammatory diseases (35,36). This invention disclosed that TNF-α […] from 2.62-fold to 0.75-fold of control levels following LPS stimulation (FIG. 8A). IL-1β is a hallmark of many chronic inflammatory diseases in humans and is reportedly associated with acute phase reactions (35,37). […] We conclude that LPS is likely to lead to M1 polarization but not M2 polarization.

[2] = tested on: LPS-induced RAW264.7 cells; test: NO production (DAF-FM DA probe, Griess assay); assay type: cell-based
Description: as §1
In addition, the concentration of NO in the culture supernatant was measured by assaying the concentrations of nitrite (a stable NO breakdown product) using the Griess assay. […] To investigate (R)-salbutamol role on the level of iNOS, the mRNA and protein levels of iNOS were determined.

BALB/c mice = test: Lung function measurements 6 hours after LPS (Buxco); assay type: in vivo
Description: Methods: Survival study: […] Treatment were given intraperitoneally for 3 consecutive days. […] The animals were monitored. Survival rate was then recorded every 12 h for 144 hours. The lung functions were measured with using Buxco system (Buxco Electronics, USA). After a brief acclimation to the chamber, the mice received an initial baseline challenge of saline. Measures were made at 6 hours after administration of LPS, including tidal volume and Penh which is an indication of airway resistance.

OVA induced asthma mice = test: Combination therapy of ipratropium with R- and S-salbutamol: lung histopathology (Masson, PAS); assay type: in vivo
Description: Left lung tissue was obtained for histopathology and fixed in 10% formalin for 24 h, followed by paraffin-embedded and then were sectioned at 4 μm for routine staining with hematoxylin and eosin (H&E, Solarbio, Beijing, China), or with periodic acid-Schiff (PAS, Solarbio, Beijing, China), or submitted to Masson's trichrome staining (Baso, Zhuhai, China). Images of the stained lung sections were obtained by an Axisplus image-capturing system (Zeiss, Germany) and then a minimum of 3 bronchi (luminal diameter, 150-500 μm) were analyzed per mice for various parameters using an image analyzing computer system (IPP) by pathologists blinded to grouping. Histological score, airway smooth muscle thickness, PAS score (goblet cells hyperplasia), and collagen deposition were evaluated by a semi-quantitative scoring method.
Methods used were similar as mentioned above. Nebulized aerosol of saline, Methacholine 2 mg/ml (low dose) or 10 mg/ml (high dose) were given via inhalation to OVA induced asthma mice.

CC(C)(C)NC[C@H](O)c1ccc(O)c(CO)c1 [R-salbutamol, (R)-Salbutamol]
concentration of MCP-1 (ELISA) ([1]; LPS alone 1.588 ng/mL): 1.15 ng/mL | IL-1β (ELISA) ([1]; LPS alone 2.24-fold): 1.12 fold of control levels | TNF-α (ELISA) ([1]; LPS alone 2.62-fold): 0.75 fold of control levels | release and expression of cytokines in LPS induced M1 macrophages (in words) ([1]; LPS challenge): inhibited the expression of cytokines | production/levels of NO (in words) ([2]; LPS-induced cells): significantly decreased; also recorded: inhibited | decrease of the level of DAF fluorescence (intracellular NO) ([2]; pretreated before LPS, LPS increased by 424% vs control): 2.68 fold | decrease of NO2- expression (Griess assay, culture supernatant) ([2]; pretreatment before LPS, LPS increased 20.25-fold vs control): 2.28 fold | deterioration of respiratory function induced by LPS (in words) (BALB/c mice): restored | Tidal volume (BALB/c mice; 0.1 mg/kg, LPS + saline 0.13 ± 0.03, Saline 0.22 ± 0.02): 0.17 ± 0.02 mL | Penh (BALB/c mice; 0.1 mg/kg, LPS + saline 1.31 ± 0.40, Saline 0.54 ± 0.09): 0.68 ± 0.09 | Tidal volume (BALB/c mice; 0.5 mg/kg, LPS + saline 0.13 ± 0.03): 0.21 ± 0.02 mL | Penh (BALB/c mice; 0.5 mg/kg, LPS + saline 1.31 ± 0.40): 0.53 ± 0.07 | PAS staining: goblet cell hyperplasia, mucus over secretion, airway edema (OVA induced asthma mice; vs OVA model): significant therapeutic benefit | Masson staining: collagen deposition, wall thickness of bronchiole and vascular vessels (OVA induced asthma mice; vs ova (model) group): significant therapeutic effects

Reference: patent publication US20220362174A1, “Use of R-enantiomer Beta2-agonists for prevent and treatment of pulmonary inflammation and inflammatory remodeling for reduced adverse effects” (priority 2019, published 2022)
